Patent US20080009487A1, “Treatment of athersclerotic disease” (priority 2006, published 2008)
“Also recorded” adds a separate entry of the source.

Tests used:
C. pneumoniae [1] = assay: Rabbit model of atherosclerosis accelerated by C. pneumoniae infection, high cholesterol diet; type: in vivo; details: C. pneumoniae-infected rabbits; for infectious burden of Chlamydia in the vasculature (in words): versus placebo
Experimental: Thirty received three separate C. pneumoniae inoculations performed at 3-week intervals. Similarly, 15 control rabbits were intranasally inoculated with 1 mL of normal saline under the same conditions. [table] Nineteen weeks after beginning antibiotic treatment, the rabbits were euthanized. After euthanasia, hearts were examined histologically and by immunofluorescence. Animal serum samples were also examined for seropositivity to the infecting organism. […] In the current study, the time after infection and treatment with either azithromycin or rifalazil was increased by seven weeks, a more rigorous test for the durability of treatment. Consistent with previously published work, C. pneumoniae-infected rabbits accumulated more plaque than non-infected rabbits (p=0.08).

C. pneumoniae [2] = details: C. pneumoniae-infected rabbits, previously published study; cited from earlier work
[3] = type: physicochemical
Experimental: Rifalazil is a highly lipophilic molecule having limited solubility in water at physiological pH (approximately 200 ng/mL). Evidence of the highly lipophilic behavior of the molecule is illustrated in the partition coefficient (n-octanol:water) of between 70, 569 and over 900,000 in different experiments (Log P range; 4.9-5.9).

[4] = Degradation to 25-desacetyl derivative under acidic and basic conditions; type: physicochemical
Excerpt: Rifalazil degrades to a 25-desacetyl derivative under both acidic and basic conditions. Typical of ester hydrolysis, the degradation in highly alkaline solutions is rapid while at an acidic pH, e.g., pH 1, the degradation at room temperature is slower, approximately 6% in one hour.

Chlamydia = assay: Phase 2 study in men with non-gonococcal urethritis; type: in vivo; details: single oral dose
Excerpt: (§1) Both preclinical and clinical lines of evidence support the use of rifalazil in the methods of the invention. […] In addition, based on overall safety data in animals and man, we believe that a dose of rifalazil can safely be administered, tolerated, and will likely result in clinical benefit through its anti-Chlamydia action in these patients.

C. pneumoniae [5] = assay: Potency against C. pneumoniae relative to roxithromycin; type: cell-based; details: fold more potent than roxithromycin
Excerpt: as §1

Structure (SMILES)	infectious burden of Chlamydia in the vasculature (in words) (C. pneumoniae [1])	prevention of Chlamydia-induced plaque formation (in words) (C. pneumoniae [2])	partition coefficient (n-octanol:water) [3]	degradation to 25-desacetyl derivative ([4]; acidic pH 1, room temperature, in one hour)	degradation (ester hydrolysis) ([4]; highly alkaline solutions)	plaque area stenosis compared with placebo-treated animals (in words) (C. pneumoniae [1])	patients in whom Chlamydia was eradicated (Chlamydia) [%]	potency against C. pneumoniae relative to roxithromycin (C. pneumoniae [5]) [times]
CC[C@H]1OC(=O)[C@H](C)[C@@H](O[C@H]2C[C@@](C)(OC)[C@@H](O)[C@H](C)O2)[C@H](C)[C@@H](O[C@@H]2O[C@H](C)C[C@H](N(C)C)[C@H]2O)[C@](C)(O)C[C@@H](C)CN(C)[C@H](C)[C@@H](O)[C@]1(C)O [azithromycin, reference compound]	reduced the infectious burden of Chlamydia in the vasculature	significant effect in preventing Chlamydia-induced plaque formation						
CO[C@H]1/C=C/O[C@@]2(C)Oc3c(C)c(O)c4c(=O)c(c5oc6cc(N7CCN(CC(C)C)CC7)cc(O)c6nc-5c4c3C2=O)NC(=O)/C(C)=C\C=C\[C@H](C)[C@H](O)[C@@H](C)[C@@H](O)[C@@H](C)[C@H](OC(C)=O)[C@@H]1C [rifalazil, 3′-hydroxy-5′-(4-isobutyl-1-piperazinyl)benzoxazinorifamycin]	reduced C. pneumoniae burden; also recorded: reduced the infectious burden of Chlamydia in the vasculature		70, 569-900,000	approximately 6%	rapid	reduced C. pneumoniae burden and plaque area stenosis; also recorded: showed a trend in producing significantly reduced plaque area stenosis	> 86	2000
